# Experimental data published in patent publication US12077503B2, “Substituted cyclic amides and their use as herbicides” (FMC CORPORATION, priority 2015, dated 2024).
# Experiments:
# Assay type in all cases: in vivo
# [1] = tested on: ivy-leaved morning glory (Ipomoea hederacea); test: Test G Pre-Emergence Protocol; settings: Ipomoea, pre-emergence, 312 h, evaluated after 13 days; for pest or weed control at 15.625 g/ha: 15.625 g ai/ha; for pest or weed control at 15.625 g/ha / pest or weed control at 250 g/ha: read-out: Morningglory, Ivy-leaved damage rating (100=total damage to plant; 0=no damage to plant); for pest or weed control at 62.5 g/ha: 62.5 g ai/ha, 100=total damage to plant, 0=no damage to plant, read-out: Morningglory, Ivy-leaved damage rating; for pest or weed control at 250 g/ha: 250 g ai/ha
# Procedure, shortened: (§1)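 Test compound in 0.5% Tween 20 acetone/water (50:50) was applied at three rates (15.625, 62.5, 250 g/ha) to soil sown one day earlier. After 13 days plants were scored for injury, where 0 means unaffected and 100 means completely damaged.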
# [2] = tested on: redroot pigweed (Amaranthus retroflexus); test: Test G Pre-Emergence Protocol; settings: Amaranthus retroflexus, pre-emergence, 312 h, evaluated after 13 days; for pest or weed control at 15.625 g/ha: 15.625 g ai/ha; for pest or weed control at 15.625 g/ha / pest or weed control at 250 g/ha: read-out: Pigweed, Redroot damage rating (100=total damage to plant; 0=no damage to plant); for pest or weed control at 62.5 g/ha: 62.5 g ai/ha, 100=total damage to plant, 0=no damage to plant, read-out: Pigweed, Redroot damage rating; for pest or weed control at 250 g/ha: 250 g ai/ha
# Procedure, shortened: as §1
# [3] = tested on: barnyardgrass (Echinochloa crus-galli); test: Test G Pre-Emergence Protocol; settings: Echinochloa crus-galli, pre-emergence, 312 h, evaluated after 13 days; for pest or weed control at 15.625 g/ha: 15.625 g ai/ha; for pest or weed control at 15.625 g/ha / pest or weed control at 250 g/ha: read-out: Barnyardgrass damage rating (100=total damage to plant; 0=no damage to plant); for pest or weed control at 62.5 g/ha: 62.5 g ai/ha, 100=total damage to plant, 0=no damage to plant, read-out: Barnyardgrass damage rating; for pest or weed control at 250 g/ha: 250 g ai/ha
# Procedure, shortened: as §1
# corn (Zea mays) [4] = test: Test G Pre-Emergence Protocol; settings: Zea mays, pre-emergence, 312 h, evaluated after 13 days; for plant injury at 15.625 g/ha: 15.625 g ai/ha; for plant injury at 15.625 g/ha / plant injury at 250 g/ha: read-out: Corn damage rating (100=total damage to plant; 0=no damage to plant); for plant injury at 62.5 g/ha: 62.5 g ai/ha, 100=total damage to plant, 0=no damage to plant, read-out: Corn damage rating; for plant injury at 250 g/ha: 250 g ai/ha
# Procedure, shortened: as §1
# [5] = tested on: velvetleaf (Abutilon theophrasti); test: Test G Pre-Emergence Protocol; settings: Abutilon theophrasti, pre-emergence, 312 h, evaluated after 13 days; for pest or weed control at 15.625 g/ha: 15.625 g ai/ha; for pest or weed control at 15.625 g/ha / pest or weed control at 250 g/ha: read-out: Velvetleaf damage rating (100=total damage to plant; 0=no damage to plant); for pest or weed control at 62.5 g/ha: 62.5 g ai/ha, 100=total damage to plant, 0=no damage to plant, read-out: Velvetleaf damage rating; for pest or weed control at 250 g/ha: 250 g ai/ha
# Procedure, shortened: as §1
# [6] = tested on: giant foxtail (Setaria faberi); test: Test G Pre-Emergence Protocol; settings: Setaria faberi, pre-emergence, 312 h, evaluated after 13 days; for pest or weed control at 15.625 g/ha: 15.625 g ai/ha; for pest or weed control at 15.625 g/ha / pest or weed control at 250 g/ha: read-out: Foxtail, Giant damage rating (100=total damage to plant; 0=no damage to plant); for pest or weed control at 62.5 g/ha: 62.5 g ai/ha, 100=total damage to plant, 0=no damage to plant, read-out: Foxtail, Giant damage rating; for pest or weed control at 250 g/ha: 250 g ai/ha
# Procedure, shortened: as §1
# [7] = tested on: ivy-leaved morning glory (Ipomoea hederacea); test: Test G Post-Emergence Protocol; settings: Ipomoea, post-emergence, 312 h, read-out: Morningglory, Ivy-leaved damage rating; for pest or weed control at 15.625 g/ha: 15.625 g ai/ha, evaluated after 13 days (100=total damage to plant; 0=no damage to plant); for pest or weed control at 62.5 g/ha: 62.5 g ai/ha; for pest or weed control at 62.5 g/ha / pest or weed control at 250 g/ha: evaluated after 13 days, 100=total damage to plant, 0=no damage to plant; for pest or weed control at 250 g/ha: 250 g ai/ha
# Procedure, shortened: (§2)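 Foliar application was made 8 days after sowing, using an aqueous spray of the active in acetone/water (50:50) with 0.5% Tween 20, at doses of 15.625, 62.5 or 250 g/ha. Injury was assessed 13 days later, where 100 meant the plant was fully damaged.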
# [8] = tested on: redroot pigweed (Amaranthus retroflexus); test: Test G Post-Emergence Protocol; settings: Amaranthus retroflexus, post-emergence, 312 h, read-out: Pigweed, Redroot damage rating; for pest or weed control at 15.625 g/ha: 15.625 g ai/ha, evaluated after 13 days (100=total damage to plant; 0=no damage to plant); for pest or weed control at 62.5 g/ha: 62.5 g ai/ha; for pest or weed control at 62.5 g/ha / pest or weed control at 250 g/ha: evaluated after 13 days, 100=total damage to plant, 0=no damage to plant; for pest or weed control at 250 g/ha: 250 g ai/ha
# Procedure, shortened: as §2
# [9] = tested on: barnyardgrass (Echinochloa crus-galli); test: Test G Post-Emergence Protocol; settings: Echinochloa crus-galli, post-emergence, 312 h, read-out: Barnyardgrass damage rating; for pest or weed control at 15.625 g/ha: 15.625 g ai/ha, evaluated after 13 days (100=total damage to plant; 0=no damage to plant); for pest or weed control at 62.5 g/ha: 62.5 g ai/ha; for pest or weed control at 62.5 g/ha / pest or weed control at 250 g/ha: evaluated after 13 days, 100=total damage to plant, 0=no damage to plant; for pest or weed control at 250 g/ha: 250 g ai/ha
# Procedure, shortened: as §2
# corn (Zea mays) [10] = test: Test G Post-Emergence Protocol; settings: Zea mays, post-emergence, 312 h, read-out: Corn damage rating; for plant injury at 15.625 g/ha: 15.625 g ai/ha, evaluated after 13 days (100=total damage to plant; 0=no damage to plant); for plant injury at 62.5 g/ha: 62.5 g ai/ha; for plant injury at 62.5 g/ha / plant injury at 250 g/ha: evaluated after 13 days, 100=total damage to plant, 0=no damage to plant; for plant injury at 250 g/ha: 250 g ai/ha
# Procedure, shortened: as §2
# [11] = tested on: velvetleaf (Abutilon theophrasti); test: Test G Post-Emergence Protocol; settings: Abutilon theophrasti, post-emergence, 312 h, read-out: Velvetleaf damage rating; for pest or weed control at 15.625 g/ha: 15.625 g ai/ha, evaluated after 13 days (100=total damage to plant; 0=no damage to plant); for pest or weed control at 62.5 g/ha: 62.5 g ai/ha; for pest or weed control at 62.5 g/ha / pest or weed control at 250 g/ha: evaluated after 13 days, 100=total damage to plant, 0=no damage to plant; for pest or weed control at 250 g/ha: 250 g ai/ha
# Procedure, shortened: as §2
# [12] = tested on: giant foxtail (Setaria faberi); test: Test G Post-Emergence Protocol; settings: Setaria faberi, post-emergence, 312 h, read-out: Foxtail, Giant damage rating; for pest or weed control at 15.625 g/ha: 15.625 g ai/ha, evaluated after 13 days (100=total damage to plant; 0=no damage to plant); for pest or weed control at 62.5 g/ha: 62.5 g ai/ha; for pest or weed control at 62.5 g/ha / pest or weed control at 250 g/ha: evaluated after 13 days, 100=total damage to plant, 0=no damage to plant; for pest or weed control at 250 g/ha: 250 g ai/ha
# Procedure, shortened: as §2
Compound,pest or weed control at 15.625 g/ha [1],pest or weed control at 62.5 g/ha [1],pest or weed control at 250 g/ha [1],pest or weed control at 15.625 g/ha [2],pest or weed control at 62.5 g/ha [2],pest or weed control at 250 g/ha [2],pest or weed control at 15.625 g/ha [3],pest or weed control at 62.5 g/ha [3],pest or weed control at 250 g/ha [3],plant injury at 15.625 g/ha (corn (Zea mays) [4]),plant injury at 62.5 g/ha (corn (Zea mays) [4]),plant injury at 250 g/ha (corn (Zea mays) [4]),pest or weed control at 15.625 g/ha [5],pest or weed control at 62.5 g/ha [5],pest or weed control at 250 g/ha [5],pest or weed control at 15.625 g/ha [6],pest or weed control at 62.5 g/ha [6],pest or weed control at 250 g/ha [6],pest or weed control at 15.625 g/ha [7],pest or weed control at 62.5 g/ha [7],also measured
CN1C[C@H](c2ccc(F)c(C#N)c2)[C@@H](C(=O)Nc2ccccc2S(C)(=O)=O)C1=O (racemic) [Compound 1798],0%,0%,0%,0%,0%,20%,0%,0%,10%,0%,0%,0%,0%,0%,10%,0%,10%,30%,0%,0%,pest or weed control at 250 g/ha [7]: 0%; pest or weed control at 15.625 g/ha [8]: 0%; pest or weed control at 62.5 g/ha [8]: 0%; pest or weed control at 250 g/ha [8]: 20%; pest or weed control at 15.625 g/ha [9]: 0%; pest or weed control at 62.5 g/ha [9]: 0%; pest or weed control at 250 g/ha [9]: 0%; plant injury at 15.625 g/ha (corn (Zea mays) [10]): 0%; plant injury at 62.5 g/ha (corn (Zea mays) [10]): 0%; plant injury at 250 g/ha (corn (Zea mays) [10]): 0%; pest or weed control at 15.625 g/ha [11]: 0%; pest or weed control at 62.5 g/ha [11]: 0%; pest or weed control at 250 g/ha [11]: 0%; pest or weed control at 15.625 g/ha [12]: 0%; pest or weed control at 62.5 g/ha [12]: 20%; pest or weed control at 250 g/ha [12]: 10%
Cc1nc(Cl)ccc1NC(=O)[C@H]1C(=O)N(C)C[C@@H]1c1ccc(C(F)(F)F)cc1 (racemic) [Compound 1825],0%,0%,0%,0%,0%,0%,0%,0%,0%,0%,0%,0%,0%,0%,0%,0%,20%,70%,0%,0%,pest or weed control at 250 g/ha [7]: 20%; pest or weed control at 15.625 g/ha [8]: 0%; pest or weed control at 62.5 g/ha [8]: 0%; pest or weed control at 250 g/ha [8]: 10%; pest or weed control at 15.625 g/ha [9]: 0%; pest or weed control at 62.5 g/ha [9]: 0%; pest or weed control at 250 g/ha [9]: 0%; plant injury at 15.625 g/ha (corn (Zea mays) [10]): 0%; plant injury at 62.5 g/ha (corn (Zea mays) [10]): 0%; plant injury at 250 g/ha (corn (Zea mays) [10]): 10%; pest or weed control at 15.625 g/ha [11]: 0%; pest or weed control at 62.5 g/ha [11]: 0%; pest or weed control at 250 g/ha [11]: 20%; pest or weed control at 15.625 g/ha [12]: 0%; pest or weed control at 62.5 g/ha [12]: 0%; pest or weed control at 250 g/ha [12]: 50%
